Results taken from patent US4312874A, “Antibacterial compounds, processes for their preparation and compositions containing them” (Beecham Group Limited, priority 1979, dated 1982).
In brackets after ≈: the same amount, converted by molar mass.

Key:
[1] = tested on: E. coli NCTC 10418; assay: MIC by serial dilution in nutrient agar with 5% chocolated horse blood; type: cell-based; details: Escherichia coli, NCTC10418; Table 1; read-out: MIC
[2] = tested on: P. mirabilis 889; assay: as above; type: cell-based; details: Proteus mirabilis, Table 1, read-out: MIC
[3] = tested on: K. aerogenes A; assay: as above; type: cell-based; details: Klebsiella aerogenes; Table 1; read-out: MIC
[4] = tested on: Ps. aeruginosa 10662; assay: as above; type: cell-based; details: Pseudomonas aeruginosa, Table 1, read-out: MIC
[5] = tested on: Pasteurella multocida 1633; assay: as above; type: cell-based; details: Table 1
[6] = tested on: Haemophilus influenzae Q1; assay: as above; type: cell-based; details: Table 1
[7] = tested on: Staph. aureus Oxford; assay: as above; type: cell-based; details: Staphylococcus aureus; Table 1
[8] = tested on: Staph. aureus Russell; assay: as above; type: cell-based; details: Staphylococcus aureus; Table 1
[9] = tested on: Staph. aureus W2827; assay: as above; type: cell-based; details: Staphylococcus aureus, Table 1
[10] = tested on: Strep. faecalis; assay: as above; type: cell-based; details: Enterococcus faecalis; Table 1; read-out: MIC
[11] = tested on: Strep. pyogenes B 2788; assay: as above; type: cell-based; details: Streptococcus pyogenes, B2788; Table 1
[12] = tested on: Strep. pyogenes C 2761; assay: as above; type: cell-based; details: Streptococcus pyogenes, C2761; Table 1
[13] = tested on: Strep. pneumoniae CN33; assay: as above; type: cell-based; details: Streptococcus pneumoniae, Table 1
[14] = tested on: M.suipneumoniae NB12; assay: in vitro MIC by serial dilution in Friis modified agarose medium; type: cell-based; details: Mesomycoplasma hyopneumoniae, Table 3
[15] = tested on: M. siupneumoniae HK(2); assay: as above; type: cell-based; details: Table 3
[16] = tested on: M. suipneumoniae J2206/183b; assay: as above; type: cell-based; details: Mesomycoplasma hyopneumoniae, Table 3
[17] = tested on: M. suipneumoniae MS 16; assay: as above; type: cell-based; details: Mesomycoplasma hyopneumoniae, MS16; Table 3
[18] = tested on: M. suipneumoniae PW/C/210; assay: as above; type: cell-based; details: Mesomycoplasma hyopneumoniae; Table 3
[19] = tested on: M. suipneumoniae LABER; assay: as above; type: cell-based; details: Mesomycoplasma hyopneumoniae; Table 3
[20] = tested on: M. suipneumoniae UCD 1; assay: as above; type: cell-based; details: Mesomycoplasma hyopneumoniae, UCD1; Table 3
[21] = tested on: M. suipneumoniae TAM 6N; assay: as above; type: cell-based; details: Mesomycoplasma hyopneumoniae, TAM6N; Table 3
[22] = tested on: M. hyorhinis ATCC 25021; assay: as above; type: cell-based; details: Mesomycoplasma hyorhinis, ATCC25021; Table 3
[23] = tested on: M. hyosnoviae ATCC 25591; assay: as above; type: cell-based; details: Table 3
[24] = tested on: M. bovis NCTC 10131; assay: microbe, parasite or virus in culture; type: cell-based; details: NCTC10131
[25] = tested on: M. bovigenitalium ATCC 14173; assay: in vitro MIC by serial dilution in Friis modified agarose medium; type: cell-based; details: Table 3; read-out: MIC
[26] = tested on: M. dispar NCTC 10125; assay: as above; type: cell-based; details: Table 3; read-out: MIC
[27] = tested on: M. gallisepticum S6; assay: as above; type: cell-based; details: Mycoplasmoides gallisepticum, Table 3
[28] = tested on: M. pneumoniae ATCC 15492; assay: as above; type: cell-based; details: Mycoplasmoides pneumoniae, ATCC15492; Table 3
[29] = Serum binding by ultrafiltration; type: in vitro ADME; details: pig, 8 mcg/ml, read-out: % Bound to Pig Serum (converted)
Experimental: Serum binding was assessed by ultrafiltration of procine serum containing compounds at 8 mcg/ml, and through an Amicon CF50A ultrafiltration cone. Separation of ultrafiltrate was achieved by centrifugation. Unbound concentrations of compound were measured in the ultrafiltrate by microbiological assay (B. subtilis ATCC 6633) against standards prepared in saline.

[30] = tested on: E. coli NCTC 10418; assay: MIC by agar dilution, veterinary bacteria; details: Escherichia coli, NCTC10418, 24 h
[31] = tested on: E. coli E1; assay: MIC by agar dilution, veterinary bacteria; details: Escherichia coli, E1, 24 h
[32] = tested on: S.dublin S7; assay: MIC by agar dilution, veterinary bacteria; details: Salmonella enterica, S7, 24 h
[33] = tested on: Bord. bronchiseptica B08; assay: MIC by agar dilution, veterinary bacteria; details: Bordetella bronchiseptica, B08, 24 h
[34] = tested on: Past. multocida PA1; assay: MIC by agar dilution, veterinary bacteria; details: Pasteurella multocida, PA1, 24 h
[35] = tested on: Past. multocida PA2; assay: MIC by agar dilution, veterinary bacteria; details: Pasteurella multocida, PA2, 24 h
[36] = tested on: Corynebacterium pyogenes CY1; assay: MIC by agar dilution, veterinary bacteria; details: CY1, 24 h
[37] = tested on: Staph. aureus B4 (pen resis); assay: MIC by agar dilution, veterinary bacteria; details: Staphylococcus aureus, 24 h
[38] = tested on: Staph. aureus 152 (pen sens); assay: MIC by agar dilution, veterinary bacteria; details: Staphylococcus aureus, 24 h
[39] = tested on: Strep. suis (group D) SPS11; assay: MIC by agar dilution, veterinary bacteria; details: Streptococcus suis, 24 h
[40] = tested on: Strep. uberis SPU1; assay: MIC by agar dilution, veterinary bacteria; details: Streptococcus uberis, SPU1, 24 h
[41] = tested on: Strep. agalactiae SPA1; assay: MIC by agar dilution, veterinary bacteria; details: Streptococcus agalactiae, SPA1, 24 h

CCCCC(=O)C=C(C)CC1OCC(CC2OC2C(C)C(C)O)C(O)C1O [Example 3, 1-[3R,4R-Dihydroxy-5S-(2S,3S-epoxy-5S-hydroxy-4S-methylhexyl)tetrahydropyran-2S-yl]-2-methyloct-2E-en-4-one]
MIC [1]: > 100 µg/mL
MIC [2]: 100 µg/mL (≈ 260 µM)
MIC [3]: > 100 µg/mL
MIC [4]: > 100 µg/mL
MIC [5]: 0.5 µg/mL (≈ 1.3 µM)
MIC [6]: 0.2 µg/mL (≈ 0.52 µM)
MIC [7]: 1 µg/mL (≈ 2.6 µM)
MIC [8]: 1 µg/mL (≈ 2.6 µM)
MIC [9]: 2.5 µg/mL (≈ 6.5 µM)
MIC [10]: > 100 µg/mL
MIC [11]: 2.5 µg/mL (≈ 6.5 µM)
MIC [12]: 2.5 µg/mL (≈ 6.5 µM)
MIC [13]: 5 µg/mL (≈ 13 µM)
MIC [14]: 1 µg/mL (≈ 2.6 µM)
MIC [15]: 1 µg/mL (≈ 2.6 µM)
MIC [16]: 1 µg/mL (≈ 2.6 µM)
MIC [17]: 0.5 µg/mL (≈ 1.3 µM)
MIC [18]: 0.5 µg/mL (≈ 1.3 µM)
MIC [19]: 0.5 µg/mL (≈ 1.3 µM)
MIC [20]: 1 µg/mL (≈ 2.6 µM)
MIC [21]: 1 µg/mL (≈ 2.6 µM)
MIC [22]: 0.5 µg/mL (≈ 1.3 µM)
MIC [23]: 0.25 µg/mL (≈ 0.65 µM)
MIC [24]: 0.025 µg/mL (≈ 0.065 µM)
MIC [25]: 0.05 µg/mL (≈ 0.13 µM)
MIC [26]: 0.25 µg/mL (≈ 0.65 µM)
MIC [27]: > 10 µg/mL
MIC [28]: 10 µg/mL (≈ 26 µM)
fraction unbound [29]: 0.469
MIC [30]: > 80 µg/mL
MIC [31]: > 80 µg/mL
MIC [32]: > 80 µg/mL
MIC [33]: > 80 µg/mL
MIC [34]: 2.5 µg/mL (≈ 6.5 µM)
MIC [35]: 1.25 µg/mL (≈ 3.25 µM)
MIC [36]: > 80 µg/mL
MIC [37]: 2.5 µg/mL (≈ 6.5 µM)
MIC [38]: 2.5 µg/mL (≈ 6.5 µM)
MIC [39]: > 80 µg/mL
MIC [40]: 2.5 µg/mL (≈ 6.5 µM)
MIC [41]: 10 µg/mL (≈ 26 µM)
